# Reference: ChEMBL document CHEMBL4706752 (ACS Med Chem Lett, 2021)
# Columns and labels:
# [1] = Decrease in IL-17a gene expression in C57BL/6 mouse model of IL-23 induced acanthosis model of psoriasis at 20 mg/kg, po BID for 10 days by RT-PCR analysis; type: functional; settings: C57BL/6, po, 240 h, time 10 day
# [2] = Metabolic stability in human liver microsomes assessed as compound remaining after 10 mins; type: ADME, Microsome; settings: read-out: Stabilty
# Cytochrome P450 2C9 = Cytochrome P450 2C9 (Homo sapiens, UniProt P11712); assay: Inhibition of CYP2C9 (unknown origin); type: ADME
# [3] = Clearance in Balb/c mouse at 2 mg/kg, iv; type: ADME, organism-based; settings: in vivo
# [4] = Clearance in Sprague-Dawley rat at 2 mg/kg, iv; type: ADME, organism-based; settings: in vivo
# [5] = Clearance in dog at 1 mg/kg, iv; type: ADME, organism-based, Canis lupus familiaris; settings: in vivo
# [6] = Unbound volume of distribution at steady state in Balb/c mouse at 2 mg/kg, iv; type: ADME, organism-based; settings: in vivo
# [7] = Unbound volume of distribution at steady state in Sprague-Dawley rat at 2 mg/kg, iv; type: ADME, organism-based; settings: in vivo
# [8] = Unbound volume of distribution at steady state in cynomolgus monkey at 1 mg/kg, iv; type: ADME, organism-based, Macaca fascicularis; settings: in vivo
# [9] = Half life in Sprague-Dawley rat at 2 mg/kg, iv; type: ADME, organism-based; settings: in vivo
# [10] = Half life in dog at 1 mg/kg, iv; type: ADME, organism-based, Canis lupus familiaris; settings: in vivo
# [11] = Half life in cynomolgus monkey at 1 mg/kg, iv; type: ADME, organism-based, Macaca fascicularis; settings: in vivo
# [12] = AUC in Balb/c mouse at 2 mg/kg, iv; type: ADME, organism-based; set-up: dose 2 mg/kg; settings: in vivo
# [13] = AUC in cynomolgus monkey at 1 mg/kg, iv; type: ADME, organism-based, Macaca fascicularis; set-up: dose 1 mg/kg; settings: in vivo
# [14] = Tmax in Sprague-Dawley rat at 4 mg/kg, po; type: ADME, organism-based; settings: in vivo
# [15] = Tmax in cynomolgus monkey at 2 mg/kg, po; type: ADME, organism-based, Macaca fascicularis; settings: in vivo
# [16] = Cmax in Sprague-Dawley rat at 4 mg/kg, po; type: ADME, organism-based; set-up: route oral, dose 4 mg/kg; settings: in vivo
# [17] = Cmax in cynomolgus monkey at 2 mg/kg, po; type: ADME, organism-based, Macaca fascicularis; set-up: route oral, dose 2 mg/kg; settings: in vivo
# [18] = AUC in dog at 2 mg/kg, po; type: ADME, organism-based, Canis lupus familiaris; set-up: dose 2 mg/kg; settings: in vivo
# [19] = Oral bioavailability in Sprague-Dawley rat at 4 mg/kg; type: ADME, organism-based; settings: in vivo
# Mus musculus [20] = assay: Suppression of ear thickness in C57BL/6 mouse model of IL-23 induced acanthosis model of psoriasis assessed as AUC of %change in ear thickness at 5 mg/kg, po BID for 10 days measured every other day; type: functional; settings: time 10 day
# Mus musculus [21] = assay: Suppression of ear thickness in C57BL/6 mouse model of IL-23 induced acanthosis model of psoriasis assessed as AUC of %change in ear thickness at 20 mg/kg, po BID for 10 days measured every other day; type: functional; settings: time 10 day
# Mus musculus [22] = assay: Antiinflammatory activity in DBA/1J mouse model of collagen-induced arthritis assessed as reduction in arthritic score at 5 to 20 mg/kg, po dosed twice daily for 21 days; type: functional, organism-based; settings: dose 5-20 mg/kg, time 21.0 day
# Mus musculus [23] = assay: Antiinflammatory activity in DBA/1J mouse model of collagen-induced arthritis assessed as reduction in plasma IL-6 level at 5 mg/kg, po dosed twice daily for 21 days (reference value: 80 +/- 6 pg/ml); type: functional; settings: time 21 day
# Mus musculus [24] = assay: Antiinflammatory activity in DBA/1J mouse model of collagen-induced arthritis assessed as reduction in plasma IL-6 level at 10 mg/kg, po dosed twice daily for 21 days (reference value: 80 +/- 6 pg/ml); type: functional; settings: time 21 day
# [25] = Decrease in IL-6 gene expression in C57BL/6 mouse model of IL-23 induced acanthosis model of psoriasis at 5 mg/kg, po BID for 10 days by RT-PCR analysis; type: functional; settings: C57BL/6, po, 240 h, time 10 day
# [26] = molecular target: T1, Nuclear receptor ROR-alpha (Homo sapiens, UniProt P35398); assay: Inhibition of RORalpha (unknown origin)
# T1 sequence (P35398 whole entry): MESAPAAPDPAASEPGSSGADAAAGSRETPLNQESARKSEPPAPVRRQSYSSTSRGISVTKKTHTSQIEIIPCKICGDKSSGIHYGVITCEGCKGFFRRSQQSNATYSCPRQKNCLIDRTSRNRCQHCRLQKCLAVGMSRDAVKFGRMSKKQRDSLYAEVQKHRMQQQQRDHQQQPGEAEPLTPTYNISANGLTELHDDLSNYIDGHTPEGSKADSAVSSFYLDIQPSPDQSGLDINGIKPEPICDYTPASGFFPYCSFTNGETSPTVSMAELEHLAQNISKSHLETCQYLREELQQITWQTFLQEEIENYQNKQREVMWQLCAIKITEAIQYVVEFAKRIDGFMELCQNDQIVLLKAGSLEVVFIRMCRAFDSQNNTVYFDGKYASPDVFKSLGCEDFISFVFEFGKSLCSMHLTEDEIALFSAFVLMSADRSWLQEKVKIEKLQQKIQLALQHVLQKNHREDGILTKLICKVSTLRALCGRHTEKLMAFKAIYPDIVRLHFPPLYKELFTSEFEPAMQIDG
# [27] = molecular target: T2, Nuclear receptor ROR-beta (Homo sapiens, UniProt Q92753); assay: Inhibition of RORbeta (unknown origin)
# T2 sequence (Q92753 whole entry): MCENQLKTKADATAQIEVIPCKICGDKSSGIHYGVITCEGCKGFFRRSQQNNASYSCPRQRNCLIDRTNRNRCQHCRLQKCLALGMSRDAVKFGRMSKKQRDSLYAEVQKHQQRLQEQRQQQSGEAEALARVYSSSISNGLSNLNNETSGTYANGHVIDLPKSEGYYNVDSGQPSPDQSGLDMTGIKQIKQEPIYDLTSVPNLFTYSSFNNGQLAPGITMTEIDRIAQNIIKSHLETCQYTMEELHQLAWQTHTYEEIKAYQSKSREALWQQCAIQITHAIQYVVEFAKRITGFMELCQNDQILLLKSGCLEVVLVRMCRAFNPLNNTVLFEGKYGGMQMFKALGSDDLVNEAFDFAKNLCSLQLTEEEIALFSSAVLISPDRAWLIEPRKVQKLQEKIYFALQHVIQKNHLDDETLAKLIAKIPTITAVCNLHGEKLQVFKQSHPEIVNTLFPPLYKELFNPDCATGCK
# [28] = molecular target: T3, Nuclear receptor subfamily 1 group I member 2 (Homo sapiens, UniProt O75469); assay: Inhibition of PXR (unknown origin)
# T3 sequence (O75469 whole entry): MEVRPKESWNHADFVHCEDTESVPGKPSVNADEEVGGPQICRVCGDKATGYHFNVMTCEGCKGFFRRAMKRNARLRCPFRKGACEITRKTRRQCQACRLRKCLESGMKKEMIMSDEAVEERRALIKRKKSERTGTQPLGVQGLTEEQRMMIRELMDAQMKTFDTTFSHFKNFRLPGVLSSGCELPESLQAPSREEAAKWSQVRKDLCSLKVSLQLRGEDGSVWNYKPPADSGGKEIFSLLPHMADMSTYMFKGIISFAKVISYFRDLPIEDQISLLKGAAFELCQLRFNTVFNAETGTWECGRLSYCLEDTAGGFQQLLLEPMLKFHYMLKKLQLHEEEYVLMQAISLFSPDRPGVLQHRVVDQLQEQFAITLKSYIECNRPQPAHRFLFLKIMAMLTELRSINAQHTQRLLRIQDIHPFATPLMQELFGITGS
# Sequence of Cytochrome P450 2C9 (P11712 whole entry): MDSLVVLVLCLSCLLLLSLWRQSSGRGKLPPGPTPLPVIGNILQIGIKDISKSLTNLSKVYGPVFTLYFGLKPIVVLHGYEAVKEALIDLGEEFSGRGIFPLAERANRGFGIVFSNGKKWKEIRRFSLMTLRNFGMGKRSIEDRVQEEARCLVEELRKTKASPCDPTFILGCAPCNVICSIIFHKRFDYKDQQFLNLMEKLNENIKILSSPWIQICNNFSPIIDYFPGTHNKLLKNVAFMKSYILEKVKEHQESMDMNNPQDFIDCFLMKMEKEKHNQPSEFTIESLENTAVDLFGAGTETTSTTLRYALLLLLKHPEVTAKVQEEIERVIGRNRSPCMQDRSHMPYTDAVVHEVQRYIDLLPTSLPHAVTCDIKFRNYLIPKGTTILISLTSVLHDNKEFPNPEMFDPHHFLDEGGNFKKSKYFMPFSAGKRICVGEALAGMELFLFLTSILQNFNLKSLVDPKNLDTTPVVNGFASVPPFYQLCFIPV
structure (smiles),measurement,setting,value
C[C@@](O)(CS(C)(=O)=O)C(=O)N[C@@H]1CC[C@@]2(S(=O)(=O)c3ccc(F)cc3)c3ccc(C(F)(C(F)(F)F)C(F)(F)F)nc3CC[C@@H]12,inhibition in vivo at 20 mg/kg,[1],87.7%
same,remaining at 10 min,[2],89%
same,IC50,Cytochrome P450 2C9,> 20 µM
same,clearance,[3],2.1 mL/min/kg
same,clearance,[4],1.9 mL/min/kg
same,clearance,[5],0.22 mL/min/kg
same,fVdss,[6],2.2 L/kg
same,fVdss,[7],2.5 L/kg
same,fVdss,[8],2.7 L/kg
same,half-life,[9],13 h
same,half-life,[10],67 h
same,half-life,[11],12 h
same,AUC,[12],22.7 µM·h
same,AUC,[13],9 µM·h
same,Tmax,[14],4 h
same,Tmax,[15],7 h
same,Cmax,[16],1600 nM
same,Cmax,[17],600 nM
same,AUC,[18],163 µM·h
same,bioavailability,[19],85%
same,Activity,Mus musculus [20],34.4%
same,Activity,Mus musculus [21],77.2%
same,Activity,Mus musculus [22],Dose-dependent effect
same,Activity,Mus musculus [23],26 pg/mL
same,Activity,Mus musculus [24],19 pg/mL
same,inhibition in vivo at 5 mg/kg,[25],55.8%
same,EC50,[26],> 10 µM
same,EC50,[27],> 10 µM
same,EC50,[28],> 10 µM
